Three compounds from article PMC4820706, “Discovery of a small-molecule binder of the oncoprotein gankyrin that modulates gankyrin activity in the cell” (Scientific Reports, 2016) can be followed below.

The target of test [1] is T1, gankyrin (Homo sapiens, UniProt O75832).
T1 construct: gene PSMD10; His-tagged full-length human gankyrin
T1 sequence (O75832 1-226): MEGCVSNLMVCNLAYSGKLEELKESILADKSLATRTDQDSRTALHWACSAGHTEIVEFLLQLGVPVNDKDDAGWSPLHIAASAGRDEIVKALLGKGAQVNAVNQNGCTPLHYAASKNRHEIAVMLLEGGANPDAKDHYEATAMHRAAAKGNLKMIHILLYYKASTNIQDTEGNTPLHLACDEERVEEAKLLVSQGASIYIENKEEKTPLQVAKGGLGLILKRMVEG
The experiment in a line: ITC (Kd […], stoichiometry […]); also label-free MST (Kd […]), thermal shift, 1H-15N HSQC NMR. Type of test: binding.

Test [2] addresses T1, gankyrin. The experiment in a line: ITC. The class given is binding.

Each structure is given as a SMILES string.

On to `COC(=O)c1ccc(-n2cc(CCCOS(=O)(=O)c3ccc(C)cc3)nn2)cc1` [cjoc42], for which, at gankyrin [1], the Kd (usually the constant that tells how readily two partners part at equilibrium) amounted to 0.58 ± 0.07 µM.

Compound `CCCNC(=O)c1ccc(-n2cc(CCCNS(=O)(=O)c3ccc(C)cc3)nn2)cc1` [compound 8] came in with a Kd on gankyrin [2] of around 10 µM.

For `COC(=O)c1ccc(-n2cc(CNS(=O)(=O)c3ccc4ccccc4c3)nn2)cc1` [compound 12], the Kd at gankyrin [2] is around 56 µM.
